Data from US6541463B1, “Inhibitors of type 5 and type 3 17β-hydroxysteroid dehydrogenase and methods for their use” (Endorecherche, Inc., priority 1998, dated 2003).
Read-outs that look alike come from different tables or passages of the source.

Target: T1, glucocorticoid receptor (Rattus norvegicus, UniProt P06536)
T1 construct: from tissue; host or cells: liver cytosol of male Sprague-Dawley rats
T1 sequence (P06536 1-795): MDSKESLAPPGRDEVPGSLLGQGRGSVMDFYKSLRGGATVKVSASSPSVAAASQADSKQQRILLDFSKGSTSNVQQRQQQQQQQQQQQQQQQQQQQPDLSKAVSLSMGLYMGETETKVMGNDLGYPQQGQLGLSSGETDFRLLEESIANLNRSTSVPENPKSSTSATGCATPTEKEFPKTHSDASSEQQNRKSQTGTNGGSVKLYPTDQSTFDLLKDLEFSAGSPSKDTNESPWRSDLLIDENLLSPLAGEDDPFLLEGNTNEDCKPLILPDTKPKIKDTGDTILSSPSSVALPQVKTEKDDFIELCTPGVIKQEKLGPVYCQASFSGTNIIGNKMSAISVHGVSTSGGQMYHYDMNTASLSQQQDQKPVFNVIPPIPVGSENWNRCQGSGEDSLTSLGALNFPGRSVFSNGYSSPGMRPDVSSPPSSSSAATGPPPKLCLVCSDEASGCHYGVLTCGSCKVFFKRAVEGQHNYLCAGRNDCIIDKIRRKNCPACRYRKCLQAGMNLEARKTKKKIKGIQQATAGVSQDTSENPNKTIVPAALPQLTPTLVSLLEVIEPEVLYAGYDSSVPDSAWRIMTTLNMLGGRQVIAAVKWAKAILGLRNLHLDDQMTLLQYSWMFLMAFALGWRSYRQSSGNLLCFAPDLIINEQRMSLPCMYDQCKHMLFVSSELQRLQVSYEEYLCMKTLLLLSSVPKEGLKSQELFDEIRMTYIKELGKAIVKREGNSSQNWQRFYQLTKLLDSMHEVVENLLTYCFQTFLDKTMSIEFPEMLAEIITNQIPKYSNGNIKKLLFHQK
Experiment: Glucocorticoid receptor assay: inhibition of [3H]-dexamethasone binding, liver cytosol
Conditions: for inhibition at 1 µM: read-out: % Inhibition Glucocorticold Receptor E^−6; for inhibition at 0.01 µM: read-out: % Inhibition Glucocorticold Receptor E^−8
Experimental: The manner in which the percentage of inhibition is determined is described in “Other Tests; F-Glucocorticoid Receptor Assay”.
[6,7-^3H(N)]-Dexamethasone (39 Ci/mmol) was purchased from New England Nuclear (Lachine, Québec, Canada) while unlabeled dexametasone was obtained from Steraloids (Wilton, N.H.). All other chemicals were of analytical grade.
Stock solutions of the unlabeled steroids were kept at 4° C. in ethanol. The desired steroid solutions were then prepared by appropriate dilution in buffer B (10 mM Tris-HCl, 1.5 mM EDTA, 10 mM α-monothioglycerol, pH 7.4) containing 30% ethanol.
Male Sprague-Dawley rats weighing 200-300 g were obtained from Charles-River Inc. (St-Constant, Québec, Canada). The rats were killed by cervical dislocation and the liver were rapidly removed, dissected free from adhering tissue and frozen on dry-ice. Tissues were kept at −80° C. until use.
All procedures were performed at 4° C. Tissues were eminced and homogenized in 10 vol (w/v) of buffer A (25 mM Tris-HCl, 1.5 mM EDTA, 10 mM α-monothioglycerol, 10% glycerol, 10 mM sodium molybdate, pH 7.4) using a Polytron PT-10 homogenizer (Brinkmann Instruments, Canada) at a setting of 5 for two periods of 10 sec, with intervals of 10 sec for cooling. The homogenate was then centrifuged at 105,000×g for 90 min. The supernatant was used immediately for assay.
Glucocorticoid binding was measured using the dextran-coated charcoal adsorption technique. Incubations were performed at 0-4° C. for 16-18 h using 100 μl of cytosol, 100 μl of [^3H]-Dexamethasone (5 nM final) and 100 μl of unlabeled compounds at the indicated concentrations. Each concentration was done in triplicate. Assay was ended with 300 μl of DCC (2.5% Norit A and 0.25% Dextran T-70 in Buffer B). After 10 min of incubation, tubes were centrifuged at 2,000×g for 10 min. and decanted in vials with 6 ml of BCS liquid scintillation (New England Nuclear, Dupont). The radioactivity was measured in a Beckman counter at a counting efficiency of 35%.

SMILES	inhibition at 1 µM (Table 4′, E^−6) [%]	inhibition at 0.01 µM (Table 4′, E^−8) [%]	also measured
CC(C)C[C@@H]1CC2C3C=CC4=CC(=O)CC[C@]4(C)C3CC[C@]2(C)C1=O (some centres unmarked) [EM-1273-CS]	–	–	% Inhibition Glucocorticoid Receptor E^−6 (E^−6): 1%; % Inhibition Glucocorticoid Receptor E^−8 (E^−8): 0%
COCCOc1cc2c(cc1C(N)=O)C1CC[C@@]3(C)C(CC[C@@]34CCC(C)(C)C(=O)O4)C1CC2 (stereo partly drawn) [EM-1424, 2-Carbamoyl-3-(2″-methoxyethyloxy)-1,3,5(10)-estratrien 17(R)-spiro-2′-(5′,5′-dimethyl-6′-oxo)tetrahydropyran]	0	0	–
CCCC(=O)OC1(C(C)=O)CCC2C3C=C(C)C4=CC(=O)CC(C)C4(C)C3CCC21C (centres unmarked) [CS-245]	–	–	% Inhibition Glucocorticoid Receptor (E^−6): 43%; % Inhibition Glucocorticoid Receptor (E^−8): 0%
CC(=O)O[C@]1(C(C)=O)CCC2C3C=C(C)C4=CC(=O)CC[C@]4(C)C3CC[C@@]21C (some centres unmarked) [megestrol acetate, reference compound]	–	–	% Inhibition Glucocorticoid Receptor (* E^−5): 98* %; % Inhibition Glucocorticoid Receptor (* E^−7): 17* %; % Inhibition Glucocorticoid Receptor (E^−6): 82%; % Inhibition Glucocorticoid Receptor (E^−8): 0%
COCCOc1cc2c(cc1C(=O)OC)C1CC[C@@]3(C)C(CC[C@@]34CCC(C)(C)C(=O)O4)C1CC2 (stereo partly drawn) [EM-1402-CS, 2-Carbomethoxy-3-(2″-methoxyethyloxy)-1,3,5(10)-estratrien 17(R)-spiro-2′-(5′,5′-dimethyl-6′-oxo)tetrahydropyran]	7	4	–
COc1ccc2c(c1)CCC1C2CCC2(C)C1CCC21CCC(C)(C)C(=O)O1 (centres unmarked) [EM-1370]	0	3	–
CCC(=O)O[C@]1(C(C)=O)CCC2C3C=C(C)C4=CC(=O)C[C@H](C)[C@]4(C)C3CC[C@@]21C (some centres unmarked) [CS-243]	–	–	% Inhibition Glucocorticoid Receptor (E^−6): 29%; % Inhibition Glucocorticoid Receptor (E^−8): 0%
COc1ccc2c(c1)C(=O)CC1C2CC[C@@]2(C)C1CC[C@@]21CCC(C)(C)C(=O)O1 (some centres unmarked) [EM-1394]	2	3	–
COCCOc1cc2c(cc1C(=O)O)C1CCC3(C)C(CCC34CCC(C)(C)C(=O)O4)C1CC2 [EM-1405, 2-Carboxy-3-(2″-methoxyethyloxy)-1,3,5(10)-estratrien-17(R)-spiro-2′-(5′,5′-dimethyl-6′-oxo)tetrahydropyran]	0	0	–
CCC[C@]1(F)CC2C3C=CC4=CC(=O)CC[C@]4(C)C3CC[C@]2(C)C1=O (some centres unmarked) [EM-1183]	–	–	% Inhibition Glucocorticoid Receptor E^−6 (E^−6): 12%; % Inhibition Glucocorticoid Receptor E^−8 (E^−8): 0%
CC12CCC3c4ccc(F)cc4CCC3C1CCC21CCCC(=O)O1 (centres unmarked) [EM-1170-CS]	3	4	–
CCS(=O)(=O)Oc1ccc2c(c1)CCC1C2CCC2(C)C1CCC21CCC(C)(C)C(=O)O1 (centres unmarked) [EM-1364-CS]	3	0	–
CSCCOc1ccc2c(c1)CCC1C2CCC2(C)C1CCC21CCCC(=O)O1 [CS-242, 3-Methylthioethyloxy-1,3,5(10)-estratrien-17(R)-spiro-2′-(6′-oxo) Tetrahydropyran]	0	0	–
CN(C)CCOc1ccc2c(c1)CCC1C2CCC2(C)C1CCC21CCC(C)(C)C(=O)O1 (centres unmarked) [EM-1389-CS]	3	0	–
CC1(C)CCC2(CCC3C4CCc5c(cc(Cl)c(O)c5Cl)C4CCC32C)OC1=O (centres unmarked) [EM-1391-CS]	2	0	–
CC(=O)O[C@]1(C(=O)N(C)C)CCC2C3C=C(C)C4=CC(=O)CC[C@]4(C)C3CC[C@@]21C (some centres unmarked) [EM-1159]	–	–	% Inhibition Glucocorticoid Receptor (E^−6): 59%; % Inhibition Glucocorticoid Receptor (E^−8): 8%
CC1(C)CCC2(CCC3C4CCc5ccccc5C4CCC32C)OC1=O (centres unmarked) [CS-224]	5	1	–
CN1C(=O)C=C[C@]2(C)C3CC[C@@]4(C)C(CC[C@@]45CCCC(=O)O5)C3CCC12 (some centres unmarked) [EM-1122-CS]	–	–	inhibition at 1 µM (Table 5 column 15, E^−6): 0%; inhibition at 0.01 µM (Table 5 column 15, E^−8): 0%
